From patent US20030206936A1, “Cosmetic composition and method of treating skin and hair” (Unilever Home & Personal Care USA, Division of Conopco, Inc., priority 2002, published 2003)

Columns and labels:
Assay type in all cases: cell-based
[1] = test system: Corynebacterium A NCIMB 40928; test: In vitro model of fatty acid catabolism by corynebacteria A (TVC, glucose and pentadecanoic acid utilisation); settings: 24 h
Protocol: An in vitro model system, reproducing fatty acid catabolism by corynebacteria A, consisted of 250 ml baffled shake flasks, to which were added 30 ml semi-synthetic medium (see below) supplemented with fatty acid substrate (2.0 mg/ml pentadecanoic acid) and non-fatty acid substrate (0.5 mg/ml glucose). This system was employed to evaluate sargahydroquinoic acid as a potential deodorant active: to each flask (other than the control) was added and specific dose of sargahydroquinoic acid (isolated from Kombo nut oil at >90% purity), from a 25 g/l stock emulsion in semi-synthetic medium supplemented with 5.0 mg/ml Gum Arabic (formed by ultra-homogenisation at 24000 rpm for 1 min) Flasks were inoculated with fresh bacterial biomass (Corynebacterium A NCIMB 40928), pre-grown for 24 h in TSBT (see below), to give starting optical densities (A5 9 0) of ˜1.0. Following inoculation, flasks were incubated aerobically at 35°0 C., with agitation (130 rpm), and analysed at 24 h. Culture viability was determined by total viable count (TVC) analysis on TSAT plates (see below) following serial dilution in quarter-strength Ringers solution. Fatty acid concentrations were determined by capillary gas chromatography (GC) (see below), while residual glucose levels were measured with blood glucose test strips (BM-Test 1-44; Boehringer Mannheim) used in conjunction with a ReflofluxS glucose meter (Boehringer Mannheim). A ‘sub-lethal’ effect is defined as significant inhibition of fatty acid catabolism, typically greater than 50% inhibition of pentadecanoic acid utilization, without concomitant reductions in Corynebacterium A viability (≦1 log10 CFU/ml reduction) or glucose utilization (≦10% reduction). Outside one or both of these defined boundaries, the effect may be described as ‘antimicrobial’, where ‘antimicrobial’ includes both bacteriostatic & bactericidal effects. Composition of Tween-supplemented Tryptone soya broth & agar (TSBT & TSAT) used for growth & maintenance of axillary bacterial (g/l): Tryptone soya broth (30.0); Yeast Extract (Beta Lab) (10.0); Tween 80™ (1.0); ± Agar (20.0). Composition of semi-synthetic medium used in in vitro system simulating fatty acid catabolism by corynebacteria A (g/l): KH2PO, (1.6);(NH4) 2HPO4(5.0); Na2SO4 (0.38); Yeast Nitrogen Base (Difco)(3.35); Yeast Extract (Beta Lab)(0.5); Tween 80™ (0.2); Triton X-100™ (0.2); MgCl2.6H20(0.5). Fatty acid levels in the flasks were determined by capillary GC analysis. Initially, 5.0 ml aliquots from each flask were transferred into universal tubes; an internal standard (lauric acid, 1.0 mg/ml final concentration) was added to each tube and the culture medium acidified (pH ˜2) by the addition of hydrochloric acid. Liquid-liquid extraction was then carried out using 2 vol (10 ml) ethyl acetate; organic and aqueous phases were resolved by centrifugation (2000 rpm, 3 min). ˜0.75 ml of each organic (upper) phase was then transferred to a sampling vial prior to analysis on a Perkin Elmer 8000 (Series 2) GC fitted with a 15 m ×0.32 mm (internal diameter) FFAP (nitroterephalic acid modified PEG/siloxane copolymer) fused silica capillary column (film thickness […]) (Quadrex). This column was attached to the split-splitless injector and flame ionisation detector (FID) of the GC; injector and detector temperatures were each 300° C. Carrier gas for the column was helium (6 psi), while hydrogen (17 psi) and air (23 psi) supplied the FID. The temperature programme for fatty acid analysis was 80° C.(2 min); 80-250° C. (20° C./min); 250° C. (5 min). Sample size for injection was 0.5-1.0 μl . Fatty acid levels in the flasks were quantified by comparison of peak areas with known levels of both internal (lauric acid) and externally-run (pentadecanoic acid) standards.

decorin = test: Dot blot assay for decorin synthesis in human dermal fibroblasts; settings: primary human foreskin fibroblasts, 24 hours, relative to vehicle control; effect similar to retinoic acid
Protocol: Procedure For Measuring Procollagen-I and Decorin Synthesis in Human Dermal Fibroblasts
Preparation of Dermal Fibroblast Conditioned Medium
Primary human foreskin fibroblasts at passage 2 (P2) were seeded into 12-well plates at 10000 cells/cm^2 and maintained for 24 hours in an atmosphere of 5% carbon dioxide and 4% oxygen in Dulbeccos Modified Eagles Medium (DMEM) supplemented with 10% foetal calf serum. After this time the cells were washed with serum free DMEM and then incubated in fresh serum free DMEM for a further 60 hours. The fibroblast monolayers were then washed again with serum free DMEM. […] This fibroblast conditioned medium was either analyzed immediately or snap frozen in liquid nitrogen and stored at −70° C. for future analysis. The cells were then counted and data from the dot-blot analysis subsequently standardized to cell number. […]
Following this the Immobilon strips were again washed with TBS/Tween 20 (3×5 minutes) before being allowed to dry in air at room temperature. […] Dot intensity was assessed by computer-assisted image TM analysis using the quantification tools in ImageQuant™, standardized to cell number and the effects of various test reagents on decorin and procollagen-I synthesis were determined relative to a vehicle treated control value of 100 arbitrary units.

PPARα = target: T1, PPARα (Homo sapiens, UniProt Q07869); test: Reporter gene assay (PPARα) in transfected Cos-7 cells; settings: 10 μM, 24 hours
T1 construct: expressed in transfected cells; host or cells: Cos-7 cells (ECACC No. 87021302), transient transfection with LipofectAMINE
T1 sequence (Q07869 1-468): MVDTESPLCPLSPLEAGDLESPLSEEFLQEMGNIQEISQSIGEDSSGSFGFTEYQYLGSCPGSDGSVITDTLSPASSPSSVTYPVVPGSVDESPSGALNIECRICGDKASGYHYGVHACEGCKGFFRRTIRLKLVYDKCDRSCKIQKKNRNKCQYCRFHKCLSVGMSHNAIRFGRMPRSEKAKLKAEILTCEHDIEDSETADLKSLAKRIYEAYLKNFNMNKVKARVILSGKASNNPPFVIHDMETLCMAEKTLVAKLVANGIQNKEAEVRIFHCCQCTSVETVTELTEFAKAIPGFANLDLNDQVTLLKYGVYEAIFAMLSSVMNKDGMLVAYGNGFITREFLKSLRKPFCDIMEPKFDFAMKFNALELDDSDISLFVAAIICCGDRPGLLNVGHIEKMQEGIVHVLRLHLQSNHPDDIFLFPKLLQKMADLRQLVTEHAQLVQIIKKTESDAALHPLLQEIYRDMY
Protocol: The following assay protocol is responsive to ligands of PPARα or retinoid X receptor.
Reporter Gene Assay Protocol
Cos-7 cells (ECACC No. 87021302) were routinely grown in DMEM with 10% FCS (foetal calf serum) at 37° C., 5% CO2 to 80% confluency. Transient transfections were performed as described by the manufacturers (GibcoBRL). Briefly, cells were plated out in 24 well plates at 50,000 cells per well and incubated overnight in DMEM with 10% FCS at 37° C., 5% CO2,. Cells were then transfected using the LipofectAMINE reagent. For each well, 0.5 μg of DNA mix (for “control” cells pPPRE3TK-luc 0.40 μg; pRL-TK 0.04 μg; pcDNA3.1(−) 0.03 μg; pRSV 0.03 μg; for “plus RXRα” cells pPPRE3TK-luc 0.40 μg; pRL-TK 0.04 μg; pcDNA3.1(−) 0.03 μg; pRSV/RXRα 0.03 μg; for “plus PPARα” cells pPPRE3TK-luc0.40 μg; pRL-TK 0.04 μg pcDNA3.1(−)/PPARα 0.03 μg pRSV 0.03 μg) in 25 μl of DMEM was incubated with 1 μl LipofectAMINE, also in 25 μl of DMEM for 45 minutes.
The mixture was then made up to 250 μl per well and added to the cells, which had been washed with 1 ml of DMEM. Cells were then incubated for 5 hours at 37° C., 5% CO2, and 250 μl DMEM with 20% SBCS (charcoal stripped bovine calf serum (Sigma)) added. Cells were allowed to recover for 18 hours at 37° C., 5% CO2 before being treated. […]

SMILES: CC(C)=CCC/C(=C/CC/C(C)=C/CC/C(C)=C/Cc1cc(O)cc(C)c1O)C(=O)O [Sargahydroquinoic acid]
- Glucose Utilisation ([1]; 0.05 g/l): 100%
- Pentadecanoic Acid Utilisation ([1]; 0.05 g/l): 99%
- TVC ([1]; 0.05 g/l): 8.67 log10 CFU/ml
- Glucose Utilisation ([1]; 0.1 g/l, * sub-lethal): 100* %
- Pentadecanoic Acid Utilisation ([1]; 0.1 g/l, * sub-lethal): 58* %
- TVC ([1]; 0.1 g/l, * sub-lethal): 8.83* log10 CFU/ml
- Glucose Utilisation ([1]; 0.25 g/l, * sub-lethal): >90* %
- Pentadecanoic Acid Utilisation ([1]; 0.25 g/l, * sub-lethal): 15* %
- TVC ([1]; 0.25 g/l, * sub-lethal): 7.93* log10 CFU/ml
- Glucose Utilisation ([1]; 0.5 g/l, * sub-lethal): 100* %
- Pentadecanoic Acid Utilisation ([1]; 0.5 g/l, * sub-lethal): 19* %
- TVC ([1]; 0.5 g/l, * sub-lethal): 7.85* log10 CFU/ml
- Glucose Utilisation ([1]; 1.0 g/l, antimicrobial effect): >90%
- Pentadecanoic Acid Utilisation ([1]; 1.0 g/l, antimicrobial effect): 5%
- TVC ([1]; 1.0 g/l, antimicrobial effect): 7.3 log10 CFU/ml
- Glucose Utilisation ([1]; 2.5 g/l, antimicrobial effect): 7%
- Pentadecanoic Acid Utilisation ([1]; 2.5 g/l, antimicrobial effect): 25%
- TVC ([1]; 2.5 g/l, antimicrobial effect): <3.0 log10 CFU/ml
- inhibition at 50 µg/mL ([1]; Corynebacterium, NCIMB40928, 0.05 g/l, in parentheses = not significant): 1%
- inhibition at 100 µg/mL ([1]; Corynebacterium, NCIMB40928, 0.1 g/l, * sub-lethal): 42%
- inhibition at 250 µg/mL ([1]; Corynebacterium, NCIMB40928, 0.25 g/l, * sub-lethal): 85%
- inhibition at 500 µg/mL ([1]; Corynebacterium, NCIMB40928, 0.5 g/l, * sub-lethal): 81%
- inhibition at 1000 µg/mL ([1]; Corynebacterium, NCIMB40928, 1.0 g/l, antimicrobial effect): 95%
- inhibition at 2500 µg/mL ([1]; Corynebacterium, NCIMB40928, 2.5 g/l, antimicrobial effect): 75%
- effect on decorin production (FIG. 1) (decorin): enhances decorin production
- PPARα ligand activity in reporter gene assay (FIG. 2) (PPARα): is a ligand for PPARα
